The target of assay [1] is T1, recombinant human NAMPT (Homo sapiens, UniProt P43490).
T1 construct: His tag (N); made in house; host or cells: E. coli BL21-CodonPlus (DE3)-RIL, pET21a+ vector
In words: NAMPT activity assay, IC50 determination (fluorometric detection of NMN derivative). The note with it: molecular/biochemical assay, read-out: IC50 (NAMPT inhibition). From the text:
Using our previously established high throughput screening (HTS) platform and recombinant human NAMPT[14][15], we performed a HTS on a chemical library containing 30000 small-molecules (Chemdiv, CA, USA). Our HTS targeting NAMPT was developed based on a fluorometric method for NAMPT activity assay by measuring the fluorescence of nicotinamide mononucleotide (NMN) derivative resulting from the NAMPT enzymatic product NMN through simple chemical reactions (Fig. 1A). […] These fluorescent and non-fluorescent compounds were further studied separately.
HTS was performed using our previously reported method. 0.5 μl stock of each compound (1 mM DMSO stock) was transferred to a 96-well PCR plate for screening. In the primary screening, 5 ng NAMPT in 20 μl reaction buffer [0.4 mM phosphoribosylpyrophosphate (PRPP, Sigma), 2 mM ATP, 0.02% BSA, 2 mM DTT, 12 mM MgCl2 and 50 mM Tris-HCl (pH = 7.5)] was added into each well, the plate was incubated at 37 °C for 5 min, then 4.5 μl substrate of NAM was added to initiate the enzyme reaction, resulting in a final concentration of 2% DMSO, 2 μg/ml NAMPT, 0.2 μM NAM and 20 μM compound. After reacting at 37 °C for 15 min, the enzyme reaction was terminated by heating at 95 °C for 1 min and cooling in an ice bath. The product of NMN was detected through the following approach: after adding 10 μl 20% acetophenone in DMSO and 10 μl 2 M KOH into each well, the mixture was vortex-mixed and kept in ice bath for 2 min. […] Finally, 85 μl mixtures in each well were transferred into a flat-bottom 96-well black plate (Greiner), and the fluorescence (F) was measured using a Tecan Infinity M200 plate reader (Tecan Group Ltd.) by setting the excitation and emission wavelength to 382 nm and 445 nm respectively. The last row of each 96-well plate includes six wells of background controls and six wells of reference controls. The relative enzyme activity (Activity%) regulated by specific compound was calculated according to equation (1): […]
To determine the IC50 of inhibitors, 0.5 μl compound stocks with various concentrations were added into 96-well plate. The plate was incubated at 37 °C for 5 min after addition of 20 μl reaction buffer containing NAMPT. […] The IC50 values were determined by non-linear fitting of the concentration-dependent curves with the four-parameter IC50 logistic equation.

The test system of a further assay is HepG2 cells. As to the kind of experiment: Cell viability assay (CCK-8) in HepG2 cells. The format is cell-based, human. The note with it: 2 μM, 48 hours of incubation. On the procedure:
Cell viability was determined by our previous method[27] using the Cell Counting Kit-8 (CCK-8, Dojindo, Japan). In human hepatocellular carcinoma cell line HepG2, cells were seeded in 96-well plate and starved for over 12 h with serum-free DMEM at 60~70% confluency, then treated with compounds or vehicle for 48 h. To determine the IC50 values of inhibitors, compounds with various concentrations were added into the 96-well plate. 10 μl CCK-8 solution was added to the culture medium and incubated at 37 °C for 1 h. The absorbance at 450 nm (A450) was detected by a plate reader. Each experiment was carried out in triplicate in three replicate wells. The IC50 values were determined by non-linear fitting of the concentration-dependent curves with the four-parameter IC50 logistic equation.

Assay [2] has as its target T1, recombinant human NAMPT. In words: HTS / fixed-concentration NAMPT activity screen (fluorometric). It counts as biochemical. The note with it: 20 μM compound; analogues of the 46 non-fluorescent inhibitors. The source says: Using our previously established high throughput screening (HTS) platform and recombinant human NAMPT[14][15], we performed a HTS on a chemical library containing 30000 small-molecules (Chemdiv, CA, USA). Our HTS targeting NAMPT was developed based on a fluorometric method for NAMPT activity assay by measuring the fluorescence of nicotinamide mononucleotide (NMN) derivative resulting from the NAMPT enzymatic product NMN through simple chemical reactions (Fig. 1A). The 30000 compounds were dissolved with dimethyl sulfoxide (DMSO); most of compounds were soluble at 10 mM stock solution (94.1%), some compounds insoluble at 10 mM were soluble at 2.5 mM stock solution (4.4%), and the remaining compounds insoluble at 2.5 mM (1.5%) were diluted further during HTS experiments (Fig. 1B). To guarantee the quality of screening, S/N ratio, CV and Z’ factors were monitored throughout the screenings, and all three indices met the requirements of HTS (Fig. 1C–E). After a primary screen and a secondary screen of all compounds at 20 μM, 242 compounds were selected as the hits of NAMPT inhibitors (NAMPT activity < 40%), and the hit rate was ~0.8% (Fig. 1F). […] All these 55 compounds were not reported as NAMPT inhibitors previously. Among the 55 compounds, we noted 46 compounds were non-fluorescent and 9 compounds were fluorescent (Fig. 1F). These fluorescent and non-fluorescent compounds were further studied separately.
HTS was performed using our previously reported method. 0.5 μl stock of each compound (1 mM DMSO stock) was transferred to a 96-well PCR plate for screening. In the primary screening, 5 ng NAMPT in 20 μl reaction buffer [0.4 mM phosphoribosylpyrophosphate (PRPP, Sigma), 2 mM ATP, 0.02% BSA, 2 mM DTT, 12 mM MgCl2 and 50 mM Tris-HCl (pH = 7.5)] was added into each well, the plate was incubated at 37 °C for 5 min, then 4.5 μl substrate of NAM was added to initiate the enzyme reaction, resulting in a final concentration of 2% DMSO, 2 μg/ml NAMPT, 0.2 μM NAM and 20 μM compound. After reacting at 37 °C for 15 min, the enzyme reaction was terminated by heating at 95 °C for 1 min and cooling in an ice bath. The product of NMN was detected through the following approach: after adding 10 μl 20% acetophenone in DMSO and 10 μl 2 M KOH into each well, the mixture was vortex-mixed and kept in ice bath for 2 min. Then 45 μl 88% formic acid was added and the mixture was incubated at 37 °C for 10 min. Finally, 85 μl mixtures in each well were transferred into a flat-bottom 96-well black plate (Greiner), and the fluorescence (F) was measured using a Tecan Infinity M200 plate reader (Tecan Group Ltd.) by setting the excitation and emission wavelength to 382 nm and 445 nm respectively. The last row of each 96-well plate includes six wells of background controls and six wells of reference controls. The relative enzyme activity (Activity%) regulated by specific compound was calculated according to equation (1):
F0 was the averaged fluorescence of six background controls, representing zero activity from a simulated enzyme reaction with only NAMPT but no NAM and compound; F100% was the averaged fluorescence of six reference controls, representing 100% activity from intact enzyme reaction without compound perturbation.
Compounds with Activity% less than 40% were considered as inhibitors and subjected to a secondary screen inhibition validation, in which another background control (FC0), a simulated enzyme reaction with NAMPT and compound but no NAM, was introduced to eliminate the direct and/or indirect influence from compound. At this stage, the Activity% was calculated according to equation (2): […]

T1 sequence (P43490 whole entry): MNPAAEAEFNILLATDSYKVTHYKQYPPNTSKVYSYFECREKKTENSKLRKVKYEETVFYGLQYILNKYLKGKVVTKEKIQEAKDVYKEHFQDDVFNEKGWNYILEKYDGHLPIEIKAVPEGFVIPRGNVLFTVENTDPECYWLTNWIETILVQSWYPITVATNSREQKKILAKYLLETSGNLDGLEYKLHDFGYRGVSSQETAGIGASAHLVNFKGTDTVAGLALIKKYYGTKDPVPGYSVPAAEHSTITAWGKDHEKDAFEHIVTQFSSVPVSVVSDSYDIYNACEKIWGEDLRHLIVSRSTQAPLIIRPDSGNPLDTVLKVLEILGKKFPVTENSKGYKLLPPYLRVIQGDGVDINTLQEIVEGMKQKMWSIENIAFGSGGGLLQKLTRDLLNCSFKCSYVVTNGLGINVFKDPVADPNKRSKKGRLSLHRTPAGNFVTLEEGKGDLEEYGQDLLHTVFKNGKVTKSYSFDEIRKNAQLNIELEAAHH

As usually defined, the IC50 is the concentration that gives 50% inhibition. Regarding `COc1ccc(-c2nnc(COc3ccc(NC(=O)c4cnccn4)cc3)o2)cc1` [M350-0814], the IC50 at recombinant human NAMPT [1] came to 0.118 ± 0.0107 µM. For the same molecule, the “Effect on HepG2 cell viability at 2 μM” value with HepG2 cells is “significant inhibition on cell viability”.

On to `CCCc1cc(Nc2ccc(C(=O)NCc3cccnc3)cc2)n2nc(-c3cccnc3)nc2n1` [D515-0654], for which, at recombinant human NAMPT [1], the IC50 worked out at 0.283 ± 0.0192 µM. In addition, the “Effect on HepG2 cell viability at 2 μM” value with HepG2 cells is reported as “significant inhibition on cell viability”.

Turning to `COc1ccc(NC(=O)NCc2noc3ccccc23)cc1` [E567-0222], the IC50 at recombinant human NAMPT [1] stood at 0.171 ± 0.0107 µM. Further, the “Effect on HepG2 cell viability at 2 μM” value in the assay with HepG2 cells was “significant inhibition on cell viability”.

For `O=C(NCc1ccccc1)c1ccc(Cn2c(=O)c3cccn3c3cccnc32)cc1` [E524-1566], the half-inhibitory concentration (IC50) on recombinant human NAMPT [1] is 0.14 ± 0.00731 µM. The “Effect on HepG2 cell viability at 2 μM” value in the assay with HepG2 cells was “significant inhibition on cell viability”.

Take `O=C(Nc1ccc(OCc2nnc(-c3ccccc3)o2)cc1)c1cnccn1` [M350-0100]: at recombinant human NAMPT [1], the IC50 was 0.0602 ± 0.00363 µM. Moreover, the “NAMPT inhibition activity at 20 μM” value on recombinant human NAMPT [2] is reported as “Yes”. Further, the “Effect on HepG2 cell viability at 2 μM” value with HepG2 cells is recorded as “significant inhibition on cell viability”.

For `O=C(CSC1=Nc2ccccc2N=C(c2cccs2)C1)Nc1ccc2c(c1)OCCO2` [C201-1487], the IC50 on recombinant human NAMPT [1] was 0.172 ± 0.0173 µM. Further, at recombinant human NAMPT [2], the “NAMPT inhibition activity at 20 μM” value is “Yes”.

Consider `Cc1ccc(CNC(=O)c2ccc(Cn3c(=O)c4cccn4c4cccnc43)cc2)cc1` [E524-1599], for which the half-inhibitory concentration (IC50) at recombinant human NAMPT [1] stood at 0.0978 ± 0.00313 µM. Moreover, the “Effect on HepG2 cell viability at 2 μM” value with HepG2 cells is reported as “significant inhibition on cell viability”.

Consider `CC(=O)c1ccc(NC(=O)Cc2noc3ccccc23)cc1` [E207-0481], for which the IC50 on recombinant human NAMPT [1] turned out to be 0.739 ± 0.0378 µM.

On to `Cc1cccc(CNC(=O)c2ccc(Cn3c(=O)c4cccn4c4cccnc43)cc2)c1` [E524-1627], for which the IC50 at recombinant human NAMPT [1] turned out to be 0.0855 ± 0.0111 µM. Moreover, the “Effect on HepG2 cell viability at 2 μM” value with HepG2 cells was “significant inhibition on cell viability”.

For `COc1ccc(CCNC(=O)NCc2noc3ccccc23)c(OC)c1` [E567-0299], the IC50 at recombinant human NAMPT [1] turned out to be 0.202 ± 0.0176 µM.

In the case of `Cc1ccccc1CCNC(=O)c1ccc(Cn2c(=O)c3cccn3c3cccnc32)cc1` [E524-1763], on recombinant human NAMPT [1], the half-inhibitory concentration (IC50) was determined as 0.253 ± 0.0179 µM.

In the case of `COc1ccc(NC(=O)NCc2noc3ccccc23)cc1Cl` [E567-0014], the IC50 on recombinant human NAMPT [1] turned out to be 0.411 ± 0.0281 µM.

Take `CC(=O)c1cccc(NC(=O)NCc2noc3ccccc23)c1` [E567-0248]: the half-maximal inhibitory concentration (IC50) on recombinant human NAMPT [1] is 0.25 ± 0.0407 µM.

`COc1ccc(OC)c(CCNC(=O)NCc2noc3ccccc23)c1` [E567-0302]: on recombinant human NAMPT [1], the IC50 was found to be 0.401 ± 0.0112 µM.

On to `CCc1ccc(NC(=O)NCc2noc3ccccc23)cc1` [E567-0089], for which the half-maximal inhibitory concentration (IC50) at recombinant human NAMPT [1] amounted to 0.0626 ± 0.00289 µM.

In the case of `CC1CCN(c2c(NCc3ccc(C(=O)NCCc4ccccc4)cc3)c(=O)c2=O)CC1` [C852-0409], on recombinant human NAMPT [1], the IC50 worked out at 1.28 ± 0.154 µM.

Take `Cc1nn(CCCC(=O)Nc2cccc(F)c2)c(=O)c2c1sc1ccccc12` [E019-0970]: at recombinant human NAMPT [1], the 50% inhibitory concentration (IC50) is 0.298 ± 0.0321 µM.

For the molecule `CCn1c(=O)c(=O)n(Cc2ccc(C(=O)NCc3cccc(Br)c3)cc2)c2cccnc21` [F704-0251], on recombinant human NAMPT [1], the concentration for half-maximal inhibition (IC50) amounted to 0.517 ± 0.0379 µM.
